Data on six compounds can be found in patent US20170137458A1, “OXYSTEROLS FOR USE IN THE TREATMENT AND PREVENTION OF DISEASES CAUSED BY VIRUSES” (priority 2014, published 2017).

One assay has as its system rotavirus. Briefly: Rotavirus cell entry kinetics. It counts as cell-based. To be noted: MA104 cells; for entry of the rotavirus into the cells (infective events): 1.9 μM for 20 hours, MOI 0.02. As to the method:
To measure the entry speed of the rotavirus into the cells, confluent monolayers of MA104 cells (cultivated in plates with 96 wells) were treated with 25OHC, 27OHC or 7κC at 1.9 μM at 37° C.; after 20 hours, the cells were washed extensively with cold medium and left to cool on ice. […] The non-bound viruses were then eliminated by washing, medium was added at 37° C., and the plates were incubated at 37° C. in a humidified atmosphere. At fixed times (i.e. 0, 15, 30, 45, 60, 75 and 90 minutes after the virus-cell adhesion), the medium was extracted from the wells and the viral particles still present on the surface of the cells were eliminated by means of two rapid washing operations with EGTA 3 mM in PBS, followed by incubation in warm medium. After reaching the last time point (90 minutes from the virus-cell adhesion), the plates with 96 wells were placed in an incubator (37° C., 5% CO2), and the infection was left to proceed for a further 16 hours. The cells were then fixed and coloured as described above. The quantity of viral particles that entered the cells at each time point was compared with the quantity of virus that entered when no washing with EGTA was performed (100% entry). The ANOVA, followed by the Bonferroni test, was used to evaluate the statistical significance of the differences between the treated and non-treated samples. The significance was fixed at the level of 95%.
As a control experiment, the same treatment and infection protocol was performed on MA104 cells, cultivated in a plate with 6 wells. In this experiment, after reaching the last time point of the entry measurement (90 minutes), the cells were lysed, the proteins extracted were denatured by boiling for 5 minutes, then separated by electrophoresis on sodium dodecylsulfate gel with 12% polyacrylamide (SDS-12%PAGE) and transferred to a polyvinylidene difluoride (PVDF) membrane. The protein of the intermediate capsid VP6 was detected using the murine monoclonal antibody 2B4 (mab0036-P, CovalAb) at a dilution 1:750, followed by secondary antibody IgG-HRP (Santa Cruz Biotechnology Inc.). The actin was detected using the anti-actin murine monoclonal antibody MAB1501R (Millipore), followed by antibody IgG-HRP (Santa Cruz Biotechnology Inc.). The density of the bands was compared using the ImageJ software, and the intensity of the actin bands was used to normalize the values. The ANOVA, followed by the Bonferroni test, was used to evaluate the statistical significance of the differences between the treated and the non-treated samples. The significance was fixed at the level of 95%. The results are reported in FIG. 11 and are expressed as a percentage, comparing treated cells with cells incubated with culture medium.

Another assay deals with LXR. To be noted: cited from earlier work.
The subject of assay [1] is human rotavirus (strain Wa). The assay is described as follows: Rotavirus yield reduction assay. The format is cell-based. As to the method: The cells were treated at 37° C. with 25-, 27-, 7α-, 7β-hydroxycholesterol or 7-ketocholesterol at 5.6 μM for 20 hours, then washed with medium and infected with the human rotavirus at an MOI of 0.02 (strain Wa) activated with trypsin. After one hour, the cells were washed and fresh medium was added supplemented with 0.5 μg/ml of porcine trypsin. […] The assay was performed in triplicate and the results were confirmed on Caco2 cells. In an alternative protocol, the MA104 cells were treated with oxysterols—at the concentration indicated above—after the viral inoculum. The one-way variance analysis (ANOVA), followed by the Bonferroni test, was used to evaluate the statistical significance of the virus titre differences between the treated and non-treated samples. The significance was fixed at 95%.
The results of the pre-treatment assays are illustrated in FIGS. 5 (MA104 cells) and 6 (Caco2 cells).

The test system of a further assay is PsV of HPV-16. Briefly: microbe, parasite or virus in culture. It counts as cell-based, human papillomavirus.
Assay [2] has as its system human rotavirus Wa. The assay is described as follows: Infectivity assay for rotavirus, MA104 cells, strain Wa.
Protocol: (§2) The strains of human rotavirus Wa (ATCC® VR-2018), WI61 (ATCC® VR-2551), HRV 408 (ATCC® VR-2273), HRV 248 (ATCC® VR-2274) and DS-1 (ATCC® VR-2550) were acquired from the American Tissue Culture Collection (ATCC); the viruses were activated with 5 μg/ml porcine pancreatic trypsin of type IX (Sigma, St. Louis, Mo.) for 30 minutes at 37° C. and propagated in MA104 cells using MEM containing 0.5 μg of trypsin per ml as described previously (27).
(§3) The antiviral effectiveness of the oxysterols of the invention was determined by means of infectivity inhibition assay. The assays were performed with confluent monolayers of MA104 cells seeded in plates with 96 wells, as described previously (28). […] The control samples were prepared by treating the cells with culture medium with the addition of equal volumes of ethanol. The cells were then washed with medium, and the rotavirus infection was performed at a multiplicity of infection (MOI) of 0.02. After the infection, the cells were washed with medium and incubated at 37° C. in an incubator humidified at 5% (vol/vol) CO2-95% (vol/vol) of air. After 16 hours, the infected cells were fixed with a cold acetone-methanol mixture (50:50), and the virus titres were determined by means of indirect immunocytochemistry. The inhibition of the virus infectivity was expressed as a percentage comparing the mean number of infective events in the treated and non-treated samples±the standard deviations. Where possible, the values of the oxysterol concentrations able to determine 50% or 90% of the antiviral effect (EC50 and EC90 respectively) were calculated by means of regression analysis using the dose-response curves generated by the experimental data, with the use of PRISM 5.00 (GraphPad Software, San Diego, Calif., USA).
The subject of assay [3] is human rhinovirus 1A. Briefly: Infectivity assay with rhinovirus (plaque count, HeLa cells).
Protocol: The human rhinovirus 1A (ATCC® VR-1559) was acquired from ATCC. The virus was propagated in HeLa cells, at 33° C. with 5% of CO2. When the cytopathic effect (CPE) had fully developed, cells and supernatants were collected, frozen and thawed three times, clarified and divided into aliquots. The viruses were kept at −70° C. The rhinovirus titres were determined by means of the standard plaque assay. In short, the HeLa cells were seeded 2 days prior to the infection in plates with 96 wells, reaching 60%-70% confluence at the time of the infection. The viral suspension was serially diluted in DMEM supplemented with 2% fetal bovine serum and inoculated; the infected wells were incubated at 33° C. for 1 hour, allowing the viruses to adhere and enter the cells. The cells were subsequently washed with medium and covered with a 1:1 mixture of 1.6% SeaPlaque agarose (BioWhittaker Molecular Applications) and DMEM 2X [26.76 g DMEM (Gibco BRL), 20 ml of L-glutamine (Gibco BRL), 4.4 g of sodium bicarbonate (Sigma, St. Louis, Mo.), FBS 40 ml (Sigma, St. Louis, Mo.) and 1000 ml of water]. The plates were incubated at 33° C. for 3 days. At the end of the incubation, the plates were fixed with 7.5% formaldehyde (Fluka) and coloured with crystal violet (Sigma, St. Louis, Mo.). The number of plaques formed was then counted; the virus titres were expressed in terms of plaque-forming units per ml (PFU/ml).
The HeLa cells, kept in DMEM supplemented with 10% FBS and 1% Zell Shield, were seeded (at 8×10^4 cells/well) in plates with 24 wells. The medium was removed and the cells were infected with 200 microlitres/well containing approximately 30 PFU of a stock of human rhinovirus 1A. The infected cells were incubated at 33° C. for 1 h, allowing the virus to adhere and enter the cells. […] The plates were incubated at 33° C. for 5 days. After the incubation, the plates were fixed with formaldehyde at 7.5% (Fluka), coloured with crystal violet (Sigma, St. Louis, Mo.) and the number of plaques formed was counted. The oxysterol concentration values able to determine 50% or 90% of the antiviral effect (EC50 and EC90 respectively) were calculated by means of regression analysis using the dose-response curves generated by the experimental data, using PRISM 5.00 (GraphPad Software, San Diego, Calif., USA).
The test system of assay [4] is human rotavirus. The assay is described as follows: Antiviral assay with U18666A, rotavirus, MA104 cells. It counts as cell-based. To be noted: MA104 cells treated 20 hours, 0.07 to 50 μM. As to the method:
(§1) According to the hypothesis formulated previously, the oxysterols determine an accumulation of the intracellular cholesterol at endosomal level, inhibiting entry of the rotavirus. […] U18666A is an amphipathic steroid, widely used to block the intracellular transport of cholesterol, with consequent accumulation of the same at the level of the endosome membranes (31). In short, antiviral assays were performed treating the MA104 cells (for the rotavirus) or HeLa cells (for the papillomavirus) for 20 hours with scalar concentrations of U18666A (0.07 to 50 μM) and then infecting for one hour with the respective viruses. The effect of the treatment on the infectivity of the two viral models was evaluated as described previously. […] The experiment described therefore constitutes solid proof of the principle of the mechanism of action proposed.

For another assay, the system named is human papillomavirus. Briefly: Antiviral assay with U18666A, papillomavirus, HeLa cells. To be noted: HeLa cells treated 20 hours. It counts as cell-based. As to the method:
as §1

A further assay concerns human rotavirus DS-1. The assay is described as follows: Infectivity assay for rotavirus, MA104 cells, strain DS-1.
For the next assay, the system named is human rotavirus HRV 248. The assay is described as follows: Infectivity assay for rotavirus, MA104 cells, strain HRV 248.
Assay [5] concerns human rhinovirus 1A. Briefly: Rhinovirus yield reduction assay. To be noted: HeLa cells, 5.6 μM after infection, collected 5 days after the infection.
Protocol: Each well was inoculated with 200 μl of a stock of human rhinovirus 1A containing approximately 30 PFU per well and incubated for 1 hour. […] The infected cells and the supernatants were collected 5 days after the infection (when a complete CPE was visible), and titred by means of the standard plaque method, as described above.
A further assay has as its system TLR4. To be noted: cited from earlier work.
A further assay deals with HPV PsV (protein L1). Briefly: Assay for adhesion of the papillomavirus to the cell surface: Western blot analysis. It counts as cell-based, human papillomavirus. To be noted: Hela cells treated 16 hours, PsV 4 hours at 4° C. From the text: L1 was detected using the murine monoclonal antibody (Ab30908, Abcam, Cambridge, UK) at a dilution of 1:2000, followed by secondary antibody IgG-HRP (Santa Cruz Biotechnology Inc.). The actin was detected using an anti-actin murine monoclonal antibody (MAB1501R, Millipore), followed by secondary antibody IgG-HRP (Santa Cruz Biotechnology Inc.).
In general terms: A western blot detects proteins with antibodies after separation by electrophoresis.

Assay [6] concerns human rotavirus. Briefly: Target identification by siRNA sensitization (TISS), human rotavirus, Caco2 cells. To be noted: oxysterol at its EC50.
Protocol: This mechanism of action vis-à-vis the rotavirus was therefore investigated, performing a target identification assay by means of sensitization with short interfering RNA (siRNA). The Caco2 cells (for the experiments with human rotavirus) or the HeLa cells (for the experiments with human papillomavirus) were seeded in a plate with 24 wells; during seeding, the cells were transfected with siRNA specific for OSBP and VAPA (at a concentration of 20 nM). […] After one day, the medium was removed and the cells inoculated with the respective viruses in the same time, temperature and MOI conditions described in the protocols of the infectivity or neutralization assays. The number of infected cells was evaluated as described in the preceding paragraphs.
The next assay deals with human rotavirus WI61. The assay is described as follows: Infectivity assay for rotavirus, MA104 cells, strain WI61.
Another assay has as its system TLR3. The assay is described as follows: Quantitative real time RT-PCR of TLR-3 in Caco2 cells. It counts as cell-based, human. To be noted: CaCo2 intestinal cells, 1.9 μM, 30 minutes to 6 hours. As to the method:
The Caco2 cells were cultivated in DMEM medium containing 10% serum and seeded in 25 cm^2 flasks (8 million confluence cells). The next day the cells were treated, in DMEM medium containing 2% serum, with 1.9 μM 25OHC or 27OHC (dissolved in ethanol) for 30 minutes, 1, 2, 3, 4, 5 or 6 hours. Extraction of the total RNA was performed using the TRIzol Reagent (Applied Biosystems, Monza, Italy) and the quantity and purity (A260/A280 ratio) of the extracted RNA were spectrophotometrically measured. Subsequently, 2 μg of RNA were retrotranscribed using the High-Capacity cDNA Reverse Transcription Kit (Applied Biosystems). Quantitative RT-PCR was performed with 30 ng of cDNA using the “TaqMan Gene Expression Assay kits” for TLR-3 and β-actin, TaqMan Fast Universal PCR Master Mix, and 7500 Fast Real-Time PCR System (Applied Biosystems). For each gene considered, the threshold cycle (Ct) was determined and the results were normalized using β-actin as a reference gene. The relative quantification was performed using a mathematical method previously published (29). In FIGS. 1a-1b, the results are reported as increment of the genic expression (Fold change, Fc) of the treated samples with respect to the controls.
(Quantitative PCR measures a nucleic acid by following its amplification.)

In the next assay the test system is human rotavirus HRV 408. The assay is described as follows: Infectivity assay for rotavirus, MA104 cells, strain HRV 408.
The subject of assay [7] is human rotavirus Wa. The assay is described as follows: Infectivity assay for rotavirus repeated on Caco2 cells, strain Wa. The format is cell-based. To be noted: Caco-2. From the text:
The results of the antiviral assays performed treating with 25OHC and 27OHC were confirmed repeating the infectivity assays on Caco2 cells.

[8] abbreviates: Caco2 cells, pre-treatment 5.6 μM for 20 hours, collected 48 hours after infection.
[9] abbreviates: MA104 cells, post-infection treatment 5.6 μM.
The mark [10] stands for this setting: MA104 cells, pre-treatment 5.6 μM for 20 hours, collected 48 hours after infection.
Setting [11] is: pre-treatment assay, 20 hours prior to the infection.

Read-outs that look alike come from different tables or passages of the source.

Protocol for human rotavirus DS-1: as §2, §3
Protocol for human rotavirus HRV 248: as §2, §3
Protocol for human rotavirus HRV 408: as §2, §3
Protocol for human rotavirus WI61: as §2, §3

On to `CC(C)CCC[C@@H](C)[C@H]1CC[C@H]2[C@@H]3C(=O)C=C4C[C@@H](O)CC[C@]4(C)[C@H]3CC[C@]12C` [7κC, 7-ketocholesterol], for which the “entry of the rotavirus into the cells (infective events)” value in the assay with rotavirus is “does not cause a significant reduction (p>0.05) in the number of infective events”. The LXR ligand activity entry with LXR is “no ligand activity”. For the same compound, the “production of virus progenies” value in assay [1] (setting [8]) is given as “significantly limit (p<0.05) the production of virus progenies”; in assay [1] (setting [9]) it was “antiviral activity”; in [1] (setting [10]) it was “significantly limit (p<0.05) the production of virus progenies”.
Consider `CC(C)C(O)CC[C@@H](C)[C@H]1CC[C@H]2[C@@H]3CC=C4C[C@@H](O)CC[C@]4(C)[C@H]3CC[C@]12C` (stereo partly shown) [24OHC, 24-hydroxycholesterol], for which the EC50 – broadly, the concentration at which the effect is half-maximal – in the assay with PsV of HPV-16 (Human papillomavirus, HeLa) stood at 4.38 µM; in the assay on human rotavirus Wa [2] it was 0.39 µM; in the assay with human rhinovirus 1A [3] (setting [11]), 0.77 µM. Besides, the values for the EC90 with human rotavirus Wa [2] and in the assay on human rhinovirus 1A [3] (setting [11]) were 1.6 µM and 3.1 µM, respectively.
Regarding `CCN(CC)CCO[C@H]1CC[C@@]2(C)C(=CC[C@@H]3[C@@H]2CC[C@]2(C)C(=O)CC[C@@H]32)C1` [U18666A], the “inhibition of rotavirus infectivity” value in the assay with human rotavirus [4] is reported as “antiviral activity is so high that calculation of the EC50 is not possible”. The compound also gave an EC50 in the assay with human papillomavirus of 1.74 µM.
As for `CC(C)CCC[C@@H](C)[C@H]1CC[C@H]2[C@@H]3[C@H](O)C=C4C[C@@H](O)CC[C@]4(C)[C@H]3CC[C@]12C` [7αOHC, 7alpha-hydroxycholesterol], the “inhibition of the infectivity of HPV” value with PsV of HPV-16 is reported as “not able to inhibit the infectivity of HPV”. The “production of virus progenies” value in [1] (setting [9]) is given as “antiviral activity”.
In the case of `C[C@@H](CO)CCC[C@@H](C)[C@H]1CC[C@H]2[C@@H]3CC=C4C[C@@H](O)CC[C@]4(C)[C@H]3CC[C@]12C` [27OHC, 27-hydroxycholesterol], the EC50 is 0.72 µM in the assay on human rotavirus DS-1; 0.23 µM in the assay on human rotavirus HRV 248; 6.87 µM with PsV of HPV-16 (C33A cells, treated 16 hours before PsV, read-out: EC50); 9.33 µM in the assay on PsV of HPV-16 (Human papillomavirus, HeLa); 28.9 µM with PsV of HPV-16 (Human papillomavirus, SiHa); 0.19 µM with human rotavirus WI61. Also, the EC50 in the assay with human rotavirus Wa [2] amounted to 0.26 µM; with human rhinovirus 1A [3] (post-infection treatment assay), 0.48 µM; in the assay with human rhinovirus 1A [3] (setting [11]), 0.62 µM; in the assay on human rotavirus HRV 408, 0.4 µM; in the assay on human rotavirus Wa [7] it was 0.44 µM. Moreover, the EC90 (usually the concentration needed for an effect of 90%) with human rotavirus DS-1 was determined as 5.85 µM; with human rotavirus HRV 248 it was 3.84 µM; in the assay with human rotavirus WI61, 0.74 µM; in the assay on human rotavirus Wa [2], 1.73 µM; with human rhinovirus 1A [3] (post-infection treatment assay), 1.27 µM; in the assay on human rhinovirus 1A [3] (setting [11]), 2.17 µM. Moreover, the EC90 in the assay on human rotavirus HRV 408 came to 4.56 µM; with human rotavirus Wa [7] it was 2.5 µM. Besides, the “entry of the rotavirus into the cells (infective events)” value in the assay with rotavirus is recorded as “able to limit the entry of the viral particles into the cells, shows a lesser effectiveness”. In addition, the “viral antigen VP6 within the cells (Western blot)” value in the assay with rotavirus (90 minutes after virus-cell adhesion) was “significantly (p<0.05) lower quantity than the non-treated control”. The “production of viral progenies” value in the assay with human rhinovirus 1A [5] is on record as “totally inhibit the production of viral progenies”. The “induction of TLR4” value with TLR4 (SH-SY5Y neuroblastoma cells) and in the assay on TLR4 (macrophage cell lines) was “active in inducing TLR4” throughout. Also, the “adhesion of the PsV to the cell surface (L1 Western blot)” value with HPV PsV (protein L1) is “not able to inhibit adhesion of the PsV to the cell surface”. Moreover, the “antiviral activity in cells with OSBP silenced” value in the assay with human rotavirus [6] (OSBP siRNA 20 nM) is “higher”. In the assay on human rotavirus [6] (VAPA siRNA 20 nM), the “antiviral activity in cells with VAP-A silenced” value is listed as “higher”. Also, the LXR ligand activity entry in the assay on LXR is on record as “optimal ligands of LXR”. Moreover, the TLR3 expression result in the assay with TLR3 is “marked hyperexpression of TLR3”. Besides, the “production of virus progenies” value is listed as “significantly limit (p<0.05) the production of virus progenies” in [1] (setting [8]), “confirm the in vitro effectiveness” in [1] (setting [9]) and “significantly limit (p<0.05) the production of virus progenies” in [1] (setting [10]).
Regarding `CC(C)CCC[C@@H](C)[C@H]1CC[C@H]2[C@@H]3[C@@H](O)C=C4C[C@@H](O)CC[C@]4(C)[C@H]3CC[C@]12C` [7βOHC, 7β-hydroxycholesterol], in the assay on TLR4 (SH-SY5Y neuroblastoma cells), the “induction of TLR4” value was “active in inducing TLR4”. Further, the “production of virus progenies” value in assay [1] (setting [9]) was “antiviral activity”; in assay [1] (setting [10]), “significant (P<0.05) antiviral activity”.
